Test system: green algae
Assay: Delayed luminescence of green algae in different redox states (first/second excitation light, waiting time), integration values
Type: cell-based, Pseudokircheneriella subcapitata
Details: for percentage (% oQ) of the oxidized plastoquinone: DBMIB 322 μg/L (FIG. 43)
From the text: In determining the relationship between the waiting time and the temporal variation of delayed luminescence, first, white light of 500 μmol·m−2·s−1 was illuminated for 10 seconds onto the measurement sample as the first excitation light for saturating photosynthetic electron transport (first illumination condition). Thereafter, a step of not illuminating light onto the measurement sample (referred to hereinafter as “waiting”) was provided and then red light of 50 μmol·m−2·s−1 was illuminated for 2 seconds as the second excitation light. The second excitation light can make delayed luminescence be emitted while hardly changing the redox state of the photosynthetic sample. Such a process is performed repeatedly with the waiting being changed to 0, 2, 10, 30, and 60 seconds. In addition, measurement is also made for a case where the illumination of the first excitation light and waiting are not executed and just the illumination of the second excitation light is performed, that is, for the case where the photosynthetic electron transport is not saturated.
In the following, a case of computing an integration value for each of an integration range (measurement time period) of 0.1 to 0.5 seconds of time after excitation, an integration range of 0.6 to 10 seconds after excitation, and an integration range of 10.1 seconds to 50 seconds after excitation shall be described. Setting of the integration ranges is not restricted to the above. The number of integration ranges may any number as long as it is no less than 1. In a case where a plurality of integration ranges are set up, the respective integration ranges may be made equal or not equal in time width. Furthermore, the integration ranges may not only be mutually set apart by a predetermined time as in the present embodiment but integration ranges may be set so as to be adjacent each other (for example, an integration range of 0.1 to 0.5 seconds of time after excitation and an integration range of 0.5 seconds to 10 seconds of time after excitation may be set up) and integration ranges may be set so as to overlap with each other (for example, an integration range of 0.1 to 0.5 seconds of time after excitation and an integration range of 0.4 seconds to 10 seconds of time after excitation may be set up).
In each graph of FIG. 29, the abscissa expresses the measurement condition and the ordinate expresses the integration value (counts) of the delayed luminescence intensity. In the following, the integration value in the integration range of 0.1 to 0.5 seconds of time after excitation, the integration value in the integration range of 0.6 to 10 seconds after excitation, and the integration value in the integration range of 10.1 seconds to 50 seconds after excitation shall be referred to respectively as integration value 1, integration value 2, and integration value 3. FIGS. 29A, 29B, and 29C are graphs respectively of the integration value 1, integration value 2, and integration value 3.
First, a method for computing an evaluation value for evaluating the electron accumulation state of the PSII of the photosynthetic sample shall be described. As one such type of evaluation value, there is, for example, a PSII electron accumulation change (en), which indicates how the electron accumulation in the PSII has changed. This value ell can be determined as: (integration value 1 of the evaluation sample)/(integration value 1 of the standard sample)×100. The PSII electron accumulation change (eII) can be computed for the respective conditions of non-saturation, 0-second waiting time, 10-second waiting time, and 60-second waiting time.
As mentioned above, the transient increase of the integration value 1 in the 0-second waiting time reflects increase of the electron accumulation in the PSII due to the takeout of electrons from the PSII becoming rate-limiting. […]

[1] = all conditions (non-saturation, 0-, 10-, 60-second waiting time), DCMU 12 ug/L, Ant-A 0.55 mg/L

## CCCCCC[C@H]1C(=O)O[C@H](C)[C@H](NC(=O)c2cccc(NC=O)c2O)C(=O)O[C@@H](C)[C@@H]1OC(=O)CC(C)C [Ant-A, Antimycin A]
10-second waiting time, Ant-A 0.55 mg/L
  integration value 1 (0.1 to 0.5 seconds after excitation): increased in the same manner as in the 0-second waiting time case
10-second waiting time, Ant-A 0.55 mg/L (FIG. 44)
  cyclic electron transport (cI) from the PSI: −12
[1]
  integration value 2 (0.6 to 10 seconds after excitation) compared with standard sample: less than those of the standard sample
  integration value 3 (10.1 to 50 seconds after excitation) compared with standard sample: less than those of the standard sample
non-saturation case, Ant-A 0.55 mg/L, integration value 3 of evaluation sample/standard sample×100 (FIG. 44)
  PSI electron accumulation change (eI): 89
non-saturation, 0-second and 60-second waiting time, Ant-A 0.55 mg/L
  integration value 1 (0.1 to 0.5 seconds after excitation) compared with standard sample: a large difference was not seen

## CC1=C(Br)C(=O)C(C(C)C)=C(Br)C1=O [DBMIB, 2,5-dibromo-6-isopropyl-3-methyl-1,4-benzoquinone]
0-second waiting time, DBMIB 322 μg/L
  integration value 2 (0.6 to 10 seconds after excitation) compared with standard sample: a large difference is not seen
10-second waiting time
  percentage (% oQ) of the oxidized plastoquinone: 4
10-second waiting time, DBMIB 322 μg/L, Ant-A 0.55 mg/L
  increase (increment) of integration value 3 at the 10-second waiting time compared with standard sample: lower than that of the standard sample
60-second waiting time
  percentage (% oQ) of the oxidized plastoquinone: 22
DBMIB 322 μg/L, sQ of evaluation sample/sQ of standard sample (FIG. 43)
  change (vQ) of redox reaction magnitude sQ: 30
All conditions, DBMIB 322 μg/L
  integration value 1 (0.1 to 0.5 seconds after excitation) compared with standard sample: greater than those of the standard sample
non-saturation, 0-second and 60-second waiting time, DBMIB 322 μg/L
  integration value 3 (10.1 to 50 seconds after excitation) compared with standard sample: a large difference was not seen
non-saturation, 10-second and 60-second waiting time, DBMIB 322 μg/L
  integration value 2 (0.6 to 10 seconds after excitation) compared with standard sample: lower than that of the standard sample

## CN(C)C(=O)Nc1ccc(Cl)c(Cl)c1 [DCMU, 3-(3,4-dichlorophenyl)-1,1-dimethyl-urea]
0-second waiting time, DCMU 12 ug/L
  integration value 1 (0.1 to 0.5 seconds after excitation) compared with standard sample: a significant difference was not seen
DCMU 12 ug/L, tII of evaluation sample/tII of standard sample×100 (FIG. 42)
  PSII electron takeout change (vII): negative
[1]
  integration value 2 (0.6 to 10 seconds after excitation) compared with standard sample: less than those of the standard sample
  integration value 3 (10.1 to 50 seconds after excitation) compared with standard sample: less than those of the standard sample
non-saturation state, DCMU 12 ug/L, integration value 1 of evaluation sample/standard sample×100 (FIG. 42)
  PSII electron accumulation change (eII): 188
non-saturation, 10-second and 60-second waiting time, DCMU 12 ug/L
  integration value 1 (0.1 to 0.5 seconds after excitation) compared with standard sample: nearly twice the values of the standard sample
